The term IC50 denotes the concentration at which inhibition is half-maximal. High values mean lower potency, low ones higher potency.

This assay has as its target T1, 3-oxo-5-alpha-steroid 4-dehydrogenase 2 (Homo sapiens, UniProt P31213).
T1 sequence (P31213 whole entry): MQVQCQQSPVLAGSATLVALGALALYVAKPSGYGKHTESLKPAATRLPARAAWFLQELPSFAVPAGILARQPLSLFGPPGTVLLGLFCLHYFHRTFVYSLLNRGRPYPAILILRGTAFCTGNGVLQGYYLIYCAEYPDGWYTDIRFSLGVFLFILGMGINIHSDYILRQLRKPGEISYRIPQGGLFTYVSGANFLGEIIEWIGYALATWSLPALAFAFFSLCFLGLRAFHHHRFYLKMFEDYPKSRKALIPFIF
In words: Inhibitory activity against human prostatic Steroid 5-alpha-reductase.
The compound `CN1C(=O)CCC2C3CC[C@H]4C[C@@H](O)CC[C@]4(C)C3CC[C@@]21C` (stereo partly drawn) displayed a half-maximal inhibitory concentration (IC50) of 4 µM. Under `CN1C(=O)CCC2C3CCC4[C@@H](O)CC[C@]4(C)C3CC[C@@]21C` (stereo partly drawn) stands 12 µM; under `CN1C(=O)CC[C@@]2(C)C1CC[C@H]1[C@@H]3CC[C@H](O)[C@@]3(C)CC[C@@H]12` (stereo partly drawn), greater than 0.43 µM. The compound `CC(C)N(C(=O)[C@@H]1CC2CCC3C(CC[C@@]4(C)C3CCC(=O)N4C)[C@@]2(C)C1)C(C)C` (stereo partly drawn) showed an IC50 of 40 µM. Under `CN1C(=O)CCC2C3CC[C@H]4CC(=O)CC[C@]4(C)C3CC[C@@]21C` (stereo partly drawn) stands 15 µM. Under `CC(C)N(C(=O)[C@@H]1C[C@@H]2CCC3C4CCC(=O)N(C)[C@@]4(C)CCC3[C@@]2(C)C1)C(C)C` (stereo partly drawn) stands greater than 100 µM; under `CN1C(=O)CCC2C3CC=C4C[C@@H](O)CC[C@]4(C)C3CC[C@@]21C` (stereo partly drawn), 32 µM; under `CCN(CC)C(=O)[C@H]1CC[C@H]2[C@@H]3CC[C@H]4N(C)C(=O)CC[C@]4(C)[C@H]3CC[C@]12C`, 0.0086 µM.

The values above are taken from ChEMBL document CHEMBL1127773, “Inhibition of steroid 5-reductase by inverted, competitive inhibitors” (Bioorg Med Chem Lett, 1994).
